Laboratory results reported in patent US20090299044A1 (priority 2006, published 2009).
Bridge positions count the residues as written; N and C are the ends. Peptide text beside a SMILES is read from it.

Tests used:
human Kv1.3 (CHO) = molecular target: T1, human Kv1.3 (CHO) (Homo sapiens, UniProt P22001); experiment: cell-based
T1 construct: expressed in transfected cells; host or cells: CHO

human Kv1.1 (HEK293) = molecular target: T2, human Kv1.1 (HEK293) (Homo sapiens, UniProt Q09470); experiment: cell-based
T2 construct: expressed in transfected cells; host or cells: HEK293
T2 sequence (Q09470 whole entry): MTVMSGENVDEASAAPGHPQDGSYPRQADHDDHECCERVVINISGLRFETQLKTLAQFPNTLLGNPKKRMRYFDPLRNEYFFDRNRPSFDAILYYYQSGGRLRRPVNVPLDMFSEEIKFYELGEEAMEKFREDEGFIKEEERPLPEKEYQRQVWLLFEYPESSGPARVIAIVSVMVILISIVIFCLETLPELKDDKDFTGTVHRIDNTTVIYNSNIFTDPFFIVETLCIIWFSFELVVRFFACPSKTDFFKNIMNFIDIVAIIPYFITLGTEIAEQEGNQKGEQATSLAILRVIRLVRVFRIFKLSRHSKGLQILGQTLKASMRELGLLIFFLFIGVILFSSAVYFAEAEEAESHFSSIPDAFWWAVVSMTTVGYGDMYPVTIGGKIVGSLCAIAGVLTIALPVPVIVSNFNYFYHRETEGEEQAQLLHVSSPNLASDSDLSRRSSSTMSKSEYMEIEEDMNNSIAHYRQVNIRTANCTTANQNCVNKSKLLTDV

T1 sequence (P22001 whole entry): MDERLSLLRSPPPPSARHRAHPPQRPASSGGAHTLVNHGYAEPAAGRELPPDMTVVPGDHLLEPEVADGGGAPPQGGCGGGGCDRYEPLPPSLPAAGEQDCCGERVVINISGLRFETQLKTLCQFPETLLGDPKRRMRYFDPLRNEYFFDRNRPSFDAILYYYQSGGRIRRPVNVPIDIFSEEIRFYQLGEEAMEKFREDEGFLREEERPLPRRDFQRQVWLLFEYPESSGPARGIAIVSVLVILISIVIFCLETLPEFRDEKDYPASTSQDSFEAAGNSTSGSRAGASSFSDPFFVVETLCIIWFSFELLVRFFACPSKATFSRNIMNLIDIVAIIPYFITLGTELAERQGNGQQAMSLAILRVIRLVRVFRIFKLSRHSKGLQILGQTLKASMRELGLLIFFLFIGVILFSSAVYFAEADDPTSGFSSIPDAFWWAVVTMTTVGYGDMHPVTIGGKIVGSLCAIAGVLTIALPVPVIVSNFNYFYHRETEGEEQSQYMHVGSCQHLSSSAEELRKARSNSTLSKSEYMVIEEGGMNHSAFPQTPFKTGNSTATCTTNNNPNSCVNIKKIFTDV

Row | Compound | IC50 (human Kv1.3 (CHO)) [pM] | IC50 (human Kv1.1 (HEK293)) [pM]
1 | CC[C@H](C)[C@@H]1NC(=O)[C@H](CCCCN)NC(=O)[C@@H](NC(=O)[C@H](CCCCN)NC(=O)[C@@H](NC(=O)[C@H](CC(N)=O)NC(=O)[C@@H](NC(=O)[C@@H](NC(=O)[C@@H](NC(=O)CN)C(C)C)[C@@H](C)CC)[C@@H](C)CC)C(C)C)CSSC[C@@H]2NC(=O)[C@H](CCC(=O)O)NC(=O)CNC(=O)[C@H](Cc3ccccc3)NC(=O)[C@H](CCCNC(=N)N)NC(=O)[C@H](CCSC)NC(=O)CNC(=O)[C@H](C)NC(=O)[C@H](CCCCN)NC(=O)[C@H](CCCCN)NC(=O)[C@@H]3CSSC[C@@H](C(=O)N[C@H](C(=O)N4CCC[C@H]4C(=O)N[C@@H](CCCCN)C(=O)O)[C@@H](C)O)NC(=O)[C@H](Cc4c[nH]cn4)NC(=O)[C@H](CSSC[C@H](NC(=O)[C@H](CCC(N)=O)NC(=O)[C@H](CCCNC(=N)N)NC(=O)[C@H](CO)NC1=O)C(=O)N[C@@H](CC(C)C)C(=O)N[C@@H](CCC(=O)O)C(=O)N1CCC[C@H]1C(=O)N3)NC(=O)[C@H](CCCCN)NC(=O)CNC(=O)[C@H](CC(N)=O)NC(=O)[C@H](CCSC)NC2=O [K27E] (H-GVIINVKCKISRQCLEPCKKAGMRFGECMNGKCHCTPK-OH; disulfide 8-28, 14-33, 18-35) | > 3330 | 549
2 | CC[C@H](C)[C@@H]1NC(=O)[C@H](CCCCN)NC(=O)[C@@H](NC(=O)[C@H](CCCCN)NC(=O)[C@@H](NC(=O)[C@H](CC(N)=O)NC(=O)[C@@H](NC(=O)[C@@H](NC(=O)[C@@H](NC(=O)CN)C(C)C)[C@@H](C)CC)[C@@H](C)CC)C(C)C)CSSC[C@@H]2NC(=O)[C@H](CCCCN)NC(=O)CNC(=O)[C@H](Cc3ccccc3)NC(=O)[C@H](CCCNC(=N)N)NC(=O)[C@H](CCSC)NC(=O)CNC(=O)[C@H](C)NC(=O)[C@H](CCCCN)NC(=O)[C@H](C)NC(=O)[C@@H]3CSSC[C@@H](C(=O)N[C@H](C(=O)N4CCC[C@H]4C(=O)N[C@@H](CCCCN)C(=O)O)[C@@H](C)O)NC(=O)[C@H](Cc4c[nH]cn4)NC(=O)[C@H](CSSC[C@H](NC(=O)[C@H](CCC(N)=O)NC(=O)[C@H](CCCNC(=N)N)NC(=O)[C@H](CO)NC1=O)C(=O)N[C@@H](CC(C)C)C(=O)N[C@@H](CCC(=O)O)C(=O)N1CCC[C@H]1C(=O)N3)NC(=O)[C@H](CCCCN)NC(=O)CNC(=O)[C@H](CC(N)=O)NC(=O)[C@H](CCSC)NC2=O [K19A] (H-GVIINVKCKISRQCLEPCAKAGMRFGKCMNGKCHCTPK-OH; disulfide 8-28, 14-33, 18-35) | 210 | 16.8
3 | CC[C@H](C)[C@@H]1NC(=O)[C@H](CCCCN)NC(=O)[C@@H](NC(=O)[C@H](CCCCN)NC(=O)[C@@H](NC(=O)[C@H](CC(N)=O)NC(=O)[C@@H](NC(=O)[C@H](CCC(=O)O)NC(=O)[C@@H](NC(=O)CN)C(C)C)[C@@H](C)CC)C(C)C)CSSC[C@@H]2NC(=O)[C@H](CCCCN)NC(=O)CNC(=O)[C@H](Cc3ccccc3)NC(=O)[C@H](CCCNC(=N)N)NC(=O)[C@H](CCSC)NC(=O)CNC(=O)[C@H](C)NC(=O)[C@H](CCCCN)NC(=O)[C@H](CCCCN)NC(=O)[C@@H]3CSSC[C@@H](C(=O)N[C@H](C(=O)N4CCC[C@H]4C(=O)N[C@@H](CCCCN)C(=O)O)[C@@H](C)O)NC(=O)[C@H](Cc4c[nH]cn4)NC(=O)[C@H](CSSC[C@H](NC(=O)[C@H](CCC(N)=O)NC(=O)[C@H](CCCNC(=N)N)NC(=O)[C@H](CO)NC1=O)C(=O)N[C@@H](CC(C)C)C(=O)N[C@@H](CCC(=O)O)C(=O)N1CCC[C@H]1C(=O)N3)NC(=O)[C@H](CCCCN)NC(=O)CNC(=O)[C@H](CC(N)=O)NC(=O)[C@H](CCSC)NC2=O [I3E] (H-GVEINVKCKISRQCLEPCKKAGMRFGKCMNGKCHCTPK-OH; disulfide 8-28, 14-33, 18-35) | 22 | 43
4 | CC[C@H](C)[C@@H]1NC(=O)[C@H](CCCCN)NC(=O)[C@@H](NC(=O)[C@H](CCCCN)NC(=O)[C@@H](NC(=O)[C@H](CC(N)=O)NC(=O)[C@@H](NC(=O)[C@@H](NC(=O)[C@@H](NC(=O)CN)C(C)C)[C@@H](C)CC)[C@@H](C)CC)C(C)C)CSSC[C@@H]2NC(=O)[C@H](CCCCN)NC(=O)CNC(=O)[C@H](Cc3ccccc3)NC(=O)[C@H](CCCNC(=N)N)NC(=O)[C@H](CCSC)NC(=O)CNC(=O)[C@H](C)NC(=O)[C@H](CCCCN)NC(=O)[C@H](CCCCN)NC(=O)[C@@H]3CSSC[C@@H](C(=O)N[C@H](C(=O)N[C@@H](CCCNC(=N)N)C(=O)N[C@@H](CCCCN)C(=O)O)[C@@H](C)O)NC(=O)[C@H](Cc4c[nH]cn4)NC(=O)[C@H](CSSC[C@H](NC(=O)[C@H](CCC(N)=O)NC(=O)[C@H](CCCNC(=N)N)NC(=O)[C@H](CO)NC1=O)C(=O)N[C@@H](CC(C)C)C(=O)N[C@@H](CCC(=O)O)C(=O)N1CCC[C@H]1C(=O)N3)NC(=O)[C@H](CCCCN)NC(=O)CNC(=O)[C@H](CC(N)=O)NC(=O)[C@H](CCSC)NC2=O [P37R] (H-GVIINVKCKISRQCLEPCKKAGMRFGKCMNGKCHCTRK-OH; disulfide 8-28, 14-33, 18-35) | 13.3 | 2.01
5 | CC[C@H](C)[C@@H]1NC(=O)[C@H](CCCCN)NC(=O)[C@@H](NC(=O)[C@H](CCCCN)NC(=O)[C@@H](NC(=O)[C@H](CC(N)=O)NC(=O)[C@@H](NC(=O)[C@@H](NC(=O)[C@@H](NC(=O)[C@@H](N)CCCNC(=N)N)C(C)C)[C@@H](C)CC)[C@@H](C)CC)C(C)C)CSSC[C@@H]2NC(=O)[C@H](CCCCN)NC(=O)CNC(=O)[C@H](Cc3ccccc3)NC(=O)[C@H](CCCNC(=N)N)NC(=O)[C@H](CCSC)NC(=O)CNC(=O)[C@H](C)NC(=O)[C@H](CCCCN)NC(=O)[C@H](CCCCN)NC(=O)[C@@H]3CSSC[C@@H](C(=O)N[C@H](C(=O)N4CCC[C@H]4C(=O)N[C@@H](CCCCN)C(=O)O)[C@@H](C)O)NC(=O)[C@H](Cc4c[nH]cn4)NC(=O)[C@H](CSSC[C@H](NC(=O)[C@H](CCC(N)=O)NC(=O)[C@H](CCCNC(=N)N)NC(=O)[C@H](CO)NC1=O)C(=O)N[C@@H](CC(C)C)C(=O)N[C@@H](CCC(=O)O)C(=O)N1CCC[C@H]1C(=O)N3)NC(=O)[C@H](CCCCN)NC(=O)CNC(=O)[C@H](CC(N)=O)NC(=O)[C@H](CCSC)NC2=O [G1R] (H-RVIINVKCKISRQCLEPCKKAGMRFGKCMNGKCHCTPK-OH; disulfide 8-28, 14-33, 18-35) | 68.8 | 9.91
6 | CC[C@H](C)[C@@H]1NC(=O)[C@H](CCCCN)NC(=O)[C@@H](NC(=O)[C@H](CCCCN)NC(=O)[C@@H](NC(=O)[C@H](CC(N)=O)NC(=O)[C@@H](NC(=O)[C@@H](NC(=O)[C@@H](NC(=O)CN)C(C)C)[C@@H](C)CC)[C@@H](C)CC)C(C)C)CSSC[C@@H]2NC(=O)[C@H](CCCCN)NC(=O)[C@H](CCC(=O)O)NC(=O)[C@H](Cc3ccccc3)NC(=O)[C@H](CCCNC(=N)N)NC(=O)[C@H](CCSC)NC(=O)CNC(=O)[C@H](C)NC(=O)[C@H](CCCCN)NC(=O)[C@H](CCCCN)NC(=O)[C@@H]3CSSC[C@@H](C(=O)N[C@H](C(=O)N4CCC[C@H]4C(=O)N[C@@H](CCCCN)C(=O)O)[C@@H](C)O)NC(=O)[C@H](Cc4c[nH]cn4)NC(=O)[C@H](CSSC[C@H](NC(=O)[C@H](CCC(N)=O)NC(=O)[C@H](CCCNC(=N)N)NC(=O)[C@H](CO)NC1=O)C(=O)N[C@@H](CC(C)C)C(=O)N[C@@H](CCC(=O)O)C(=O)N1CCC[C@H]1C(=O)N3)NC(=O)[C@H](CCCCN)NC(=O)CNC(=O)[C@H](CC(N)=O)NC(=O)[C@H](CCSC)NC2=O [G26E] (H-GVIINVKCKISRQCLEPCKKAGMRFEKCMNGKCHCTPK-OH; disulfide 8-28, 14-33, 18-35) | > 3330 | > 3330
7 | CC[C@H](C)[C@@H]1NC(=O)[C@H](CCCCN)NC(=O)[C@@H](NC(=O)[C@H](CCCCN)NC(=O)[C@@H](NC(=O)[C@H](CC(N)=O)NC(=O)[C@@H](NC(=O)[C@@H](NC(=O)[C@@H](NC(=O)CN)C(C)C)[C@@H](C)CC)[C@@H](C)CC)C(C)C)CSSC[C@@H]2NC(=O)[C@H](CCCCN)NC(=O)CNC(=O)[C@H](Cc3ccccc3)NC(=O)[C@H](CCCNC(=N)N)NC(=O)[C@H](CCSC)NC(=O)CNC(=O)[C@H](C)NC(=O)[C@H](CCCCN)NC(=O)[C@H](CCCCN)NC(=O)[C@@H]3CSSC[C@@H](C(=O)N[C@H](C(=O)N4CCC[C@H]4C(=O)N[C@@H](CCCCN)C(=O)O)[C@@H](C)O)NC(=O)[C@H](Cc4c[nH]cn4)NC(=O)[C@H](CSSC[C@H](NC(=O)[C@H](CCC(N)=O)NC(=O)[C@H](CCCNC(=N)N)NC(=O)[C@H](CO)NC1=O)C(=O)N[C@@H](CC(C)C)C(=O)N[C@@H](CCC(=O)O)C(=O)N1CCC[C@H]1C(=O)N3)NC(=O)[C@H](CCCCN)NC(=O)[C@H](C)NC(=O)[C@H](CC(N)=O)NC(=O)[C@H](CCSC)NC2=O [G31A] (H-GVIINVKCKISRQCLEPCKKAGMRFGKCMNAKCHCTPK-OH; disulfide 8-28, 14-33, 18-35) | 70.2 | 61.8
8 | CC[C@H](C)[C@@H]1NC(=O)[C@H](CCCCN)NC(=O)[C@@H](NC(=O)[C@H](CCCCN)NC(=O)[C@@H](NC(=O)[C@H](CC(N)=O)NC(=O)[C@@H](NC(=O)[C@@H](NC(=O)[C@@H](NC(=O)CN)C(C)C)[C@@H](C)CC)[C@@H](C)CC)C(C)C)CSSC[C@@H]2NC(=O)[C@H](CCCCN)NC(=O)CNC(=O)[C@H](Cc3ccccc3)NC(=O)[C@H](CCCNC(=N)N)NC(=O)[C@H](C)NC(=O)CNC(=O)[C@H](C)NC(=O)[C@H](CCCCN)NC(=O)[C@H](CCCCN)NC(=O)[C@@H]3CSSC[C@@H](C(=O)N[C@H](C(=O)N4CCC[C@H]4C(=O)N[C@@H](CCCCN)C(=O)O)[C@@H](C)O)NC(=O)[C@H](Cc4c[nH]cn4)NC(=O)[C@H](CSSC[C@H](NC(=O)[C@H](CCC(N)=O)NC(=O)[C@H](CCCNC(=N)N)NC(=O)[C@H](CO)NC1=O)C(=O)N[C@@H](CC(C)C)C(=O)N[C@@H](CCC(=O)O)C(=O)N1CCC[C@H]1C(=O)N3)NC(=O)[C@H](CCCCN)NC(=O)CNC(=O)[C@H](CC(N)=O)NC(=O)[C@H](CCSC)NC2=O [M23A] (H-GVIINVKCKISRQCLEPCKKAGARFGKCMNGKCHCTPK-OH; disulfide 8-28, 14-33, 18-35) | 71.4 | 38.6
